In patent publication US12630548B2, “Azetidine derivatives for the treatment of integrin associated diseases” (The University of Nottingham, priority 2020, dated 2026):

target: ανβ6 (Homo sapiens, UniProt P06756+P18564); test: Cell adhesion assay, αvβ6 integrin; format: cell-based; details: cell adhesion data; read-out: ανβ6 IC50
Protocol: The assays were performed as described in the literature (P. A. Procopiou, N. A. Anderson, J. Barrett, T. N. Barrett, M. H. J. Crawford, B. J. Fallon, A. P. Hancock, J. Le, S. Lemma, R. P. Marshall, J. Morrell, J. M. Pritchard, J. E. Rowedder, P. Saklatvala, R. J. Slack, S. L. Sollis, C. J. Suckling, L. R. Thorp, G. Vitulli, et al., J. Med. Chem. 2018, 61, 8417-8443; S. B. Ludbrook, S. T. Barry, C. J. Delves, C. M. T. Horgan, Biochem. J. 2003, 369, 311-318).

ανβ6, sequence (P06756 31-889 limits assumed): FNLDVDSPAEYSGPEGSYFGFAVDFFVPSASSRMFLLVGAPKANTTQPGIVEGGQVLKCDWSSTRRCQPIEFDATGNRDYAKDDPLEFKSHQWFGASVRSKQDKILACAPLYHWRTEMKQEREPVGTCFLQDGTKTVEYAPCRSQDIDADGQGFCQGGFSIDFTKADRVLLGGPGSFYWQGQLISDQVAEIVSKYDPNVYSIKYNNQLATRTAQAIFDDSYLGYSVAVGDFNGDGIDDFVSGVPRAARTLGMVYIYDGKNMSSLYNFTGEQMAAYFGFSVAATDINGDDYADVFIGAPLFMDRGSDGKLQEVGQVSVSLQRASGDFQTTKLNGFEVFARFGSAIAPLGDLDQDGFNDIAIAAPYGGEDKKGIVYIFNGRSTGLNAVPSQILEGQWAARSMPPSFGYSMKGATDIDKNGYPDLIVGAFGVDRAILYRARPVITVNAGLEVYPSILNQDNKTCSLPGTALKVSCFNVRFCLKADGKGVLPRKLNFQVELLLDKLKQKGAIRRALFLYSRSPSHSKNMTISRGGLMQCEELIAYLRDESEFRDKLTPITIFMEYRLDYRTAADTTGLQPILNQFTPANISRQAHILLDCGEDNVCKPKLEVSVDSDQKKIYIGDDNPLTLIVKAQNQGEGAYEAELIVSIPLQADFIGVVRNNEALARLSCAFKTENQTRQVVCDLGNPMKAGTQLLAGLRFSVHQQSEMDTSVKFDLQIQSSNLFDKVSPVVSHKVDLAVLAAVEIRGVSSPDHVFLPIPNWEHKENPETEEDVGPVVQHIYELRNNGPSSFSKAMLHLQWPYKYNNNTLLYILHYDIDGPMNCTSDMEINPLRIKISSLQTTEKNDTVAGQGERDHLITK
ανβ6, sequence (P06756 891-1048 limits assumed): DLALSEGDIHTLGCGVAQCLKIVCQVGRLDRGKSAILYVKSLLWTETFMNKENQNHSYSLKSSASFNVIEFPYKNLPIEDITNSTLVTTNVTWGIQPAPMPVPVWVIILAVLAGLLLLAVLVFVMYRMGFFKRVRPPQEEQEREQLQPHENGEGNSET
ανβ6, sequence (P18564 22-788): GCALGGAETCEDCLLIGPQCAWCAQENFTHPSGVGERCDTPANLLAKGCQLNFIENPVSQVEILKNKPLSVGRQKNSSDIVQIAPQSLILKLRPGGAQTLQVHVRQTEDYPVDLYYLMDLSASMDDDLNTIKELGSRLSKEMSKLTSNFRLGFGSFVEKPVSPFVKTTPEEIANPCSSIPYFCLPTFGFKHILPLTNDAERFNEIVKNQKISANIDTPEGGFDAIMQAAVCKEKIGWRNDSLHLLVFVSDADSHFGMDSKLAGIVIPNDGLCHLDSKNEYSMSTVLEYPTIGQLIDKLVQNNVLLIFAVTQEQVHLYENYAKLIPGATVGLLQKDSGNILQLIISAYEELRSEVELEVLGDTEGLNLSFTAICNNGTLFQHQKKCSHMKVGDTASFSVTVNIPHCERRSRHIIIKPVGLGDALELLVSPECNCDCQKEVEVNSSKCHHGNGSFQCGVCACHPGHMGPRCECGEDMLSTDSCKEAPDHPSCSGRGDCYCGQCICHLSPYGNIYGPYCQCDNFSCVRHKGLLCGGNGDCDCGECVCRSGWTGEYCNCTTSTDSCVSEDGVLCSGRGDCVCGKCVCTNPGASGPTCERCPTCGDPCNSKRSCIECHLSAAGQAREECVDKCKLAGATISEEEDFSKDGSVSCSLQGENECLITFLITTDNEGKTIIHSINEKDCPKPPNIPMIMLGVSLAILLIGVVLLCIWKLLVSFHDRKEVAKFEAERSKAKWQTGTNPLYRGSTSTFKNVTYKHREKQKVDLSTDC

IC50	SMILES
< 250 nM	Cc1cc(Cl)cc(S(=O)(=O)N2CC(C(=O)NC(CNC(=O)CCCCc3ccc4c(n3)NCCC4)C(=O)O)C2)c1 (racemic) [Example 13, 2-(1-(3-chloro-5-methylbenzenesulfonyl)azetidine-3-carboxamido)-3-(5-(5,6,7,8-tetrahydro-1,8-naphthyridin-2-yl)pentanamido)propanoic acid]
< 250 nM	CCc1cccc(S(=O)(=O)N2CC(C(=O)NC(CNC(=O)CCCCc3ccc4c(n3)NCCC4)C(=O)O)C2)c1 (racemic) [Example 14, 2-(1-(3-ethylbenzenesulfonyl)azetidine-3-carboxamido)-3-(5-(5,6,7,8-tetrahydro-1,8-naphthyridin-2-yl)pentanamido)propanoic acid]
< 250 nM	Cc1cccc(S(=O)(=O)N2CC(C)(C(=O)NC(CNC(=O)CCCCc3ccc4c(n3)NCCC4)C(=O)O)C2)c1 (racemic) [Example 15, 2-(3-methyl-1-(3-methylbenzenesulfonyl)azetidine-3-carboxamido)-3-(5-(5,6,7,8-tetrahydro-1,8-naphthyridin-2-yl)pentanamido)propanoic acid]
< 250 nM	CCC1(C(=O)NC(CNC(=O)CCCCc2ccc3c(n2)NCCC3)C(=O)O)CN(S(=O)(=O)c2cccc(C)c2)C1 (racemic) [Example 16, 2-(3-ethyl-1-(3-methylbenzenesulfonyl)azetidine-3-carboxamido)-3-(5-(5,6,7,8-tetrahydro-1,8-naphthyridin-2-yl)pentanamido)propanoic acid]
< 250 nM	Cc1cccc(S(=O)(=O)N2CC(F)(C(=O)NC(CNC(=O)CCCCc3ccc4c(n3)NCCC4)C(=O)O)C2)c1 (racemic) [Example 17, 2-(3-fluoro-1-(3-methylbenzenesulfonyl)azetidine-3-carboxamido)-3-(5-(5,6,7,8-tetrahydro-1,8-naphthyridin-2-yl)pentanamido)propanoic acid]
< 250 nM	Cn1cnc(S(=O)(=O)N2CC(C(=O)NC(CNC(=O)CCCCc3ccc4c(n3)NCCC4)C(=O)O)C2)c1 (racemic) [Example 18, 2-(1-((1-methyl-1H-imidazol-4-yl)sulfonyl)azetidine-3-carboxamido)-3-(5-(5,6,7,8-tetrahydro-1,8-naphthyridin-2-yl)pentanamido) propanoic acid]
< 250 nM	Cn1cc(S(=O)(=O)N2CC(C(=O)NC(CNC(=O)CCCCc3ccc4c(n3)NCCC4)C(=O)O)C2)cn1 (racemic) [Example 19, 2-(1-((1-methyl-1H-pyrazol-4-yl)sulfonyl)azetidine-3-carboxamido)-3-(5-(5,6,7,8-tetrahydro-1,8-naphthyridin-2-yl)pentanamido)propanoic acid]
< 250 nM	O=C(CCCCc1ccc2c(n1)NCCC2)NCC(NC(=O)C1CN(S(=O)(=O)c2ccc(Cl)s2)C1)C(=O)O (racemic) [Example 20, 2-(1-((5-chlorothiophen-2-yl)sulfonyl)azetidine-3-carboxamido)-3-(5-(5,6,7,8-tetrahydro-1,8-naphthyridin-2-yl)pentanamido)propanoic acid]
< 250 nM	O=C(CCCCc1ccc2c(n1)NCCC2)NCC(NC(=O)C1CN(S(=O)(=O)c2cccnc2)C1)C(=O)O (racemic) [Example 21, 2-(1-(pyridin-3-ylsulfonyl)azetidine-3-carboxamido)-3-(5-(5,6,7,8-tetrahydro-1,8-naphthyridin-2-yl)pentanamido)propanoic acid]
< 250 nM	Cc1nc(S(=O)(=O)N2CC(C(=O)NC(CNC(=O)CCCCc3ccc4c(n3)NCCC4)C(=O)O)C2)cn1C (racemic) [Example 22, 2-(1-((1,2-dimethyl-1H-imidazol-4-yl)sulfonyl)azetidine-3-carboxamido)-3-(5-(5,6,7,8-tetrahydro-1,8-naphthyridin-2-yl)pentanamido)propanoic acid]
< 250 nM	O=C(CCCCc1ccc2c(n1)NCCC2)NC[C@H](NC(=O)C1CN(S(=O)(=O)c2cc(Cl)cc(Cl)c2)C1)C(=O)O [Example 23, (S)-2-(1-(3,5-Dichlorobenzenesulfonyl)azetidine-3-carboxamido)-3-(5-(5,6,7,8-tetrahydro-1,8-naphthyridin-2-yl)pentanamido)propanoic acid]
< 250 nM	Cc1cc(C)cc(S(=O)(=O)N2CC(C(=O)N[C@@H](CNC(=O)CCCCc3ccc4c(n3)NCCC4)C(=O)O)C2)c1 [Example 24, (S)-2-(1-(3,5-Dimethylbenzenesulfonyl)azetidine-3-carboxamido)-3-(5-(5,6,7,8-tetrahydro-1,8-naphthyridin-2-yl)pentanamido)propanoic acid]
< 250 nM	Cc1cc(Cl)cc(S(=O)(=O)N2CC(C(=O)N[C@@H](CNC(=O)CCCCc3ccc4c(n3)NCCC4)C(=O)O)C2)c1 [Example 25, (S)-2-(1-(3-Chloro-5-methylbenzenesulfonyl)azetidine-3-carboxamido)-3-(5-(5,6,7,8-tetrahydro-1,8-naphthyridin-2-yl)pentanamido)propanoic acid]
< 250 nM	CCc1cccc(S(=O)(=O)N2CC(C(=O)N[C@@H](CNC(=O)CCCCc3ccc4c(n3)NCCC4)C(=O)O)C2)c1 [Example 26, (S)-2-(1-(3-Ethylbenzenesulfonyl)azetidine-3-carboxamido)-3-(5-(5,6,7,8-tetrahydro-1,8-naphthyridin-2-yl)pentanamido)propanoic acid]
< 250 nM	O=C(CCCCc1ccc2c(n1)NCCC2)NC[C@H](NC(=O)C1CN(S(=O)(=O)c2cccc(Cl)c2)C1)C(=O)O [Example 27, (S)-2-(1-(3-Chlorobenzenesulfonyl)azetidine-3-carboxamido)-3-(5-(5,6,7,8-tetrahydro-1,8-naphthyridin-2-yl)pentanamido)propanoic acid]
< 250 nM	COc1cccc(S(=O)(=O)N2CC(C(=O)N[C@@H](CNC(=O)CCCCc3ccc4c(n3)NCCC4)C(=O)O)C2)c1 [Example 28, (S)-2-(1-(3-Methoxybenzenesulfonyl)azetidine-3-carboxamido)-3-(5-(5,6,7,8-tetrahydro-1,8-naphthyridin-2-yl)pentanamido)propanoic acid]
< 250 nM	O=C(CCCCc1ccc2c(n1)NCCC2)NC[C@H](NC(=O)C1CN(S(=O)(=O)c2cccc(C(F)F)c2)C1)C(=O)O [Example 29, (S)-2-(1-(3-(Difluoromethyl)benzenesulfonyl)azetidine-3-carboxamido)-3-(5-(5,6,7,8-tetrahydro-1,8-naphthyridin-2-yl)pentanamido)propanoic acid]
< 250 nM	O=C(CCCCc1ccc2c(n1)NCCC2)NC[C@H](NC(=O)C1CN(S(=O)(=O)c2cccc(C3CC3)c2)C1)C(=O)O [Example 30, (S)-2-(1-(3-Cyclopropylbenzenesulfonyl)azetidine-3-carboxamido)-3-(5-(5,6,7,8-tetrahydro-1,8-naphthyridin-2-yl)pentanamido)propanoic acid]
< 250 nM	O=C(CCCCc1ccc2c(n1)NCCC2)NC[C@H](NC(=O)C1CN(S(=O)(=O)c2ccc3c(c2)CCC3)C1)C(=O)O [Example 31, (S)-2-(1-((2,3-Dihydro-1H-inden-5-yl)sulfonyl)azetidine-3-carboxamido)-3-(5-(5,6,7,8-tetrahydro-1,8-naphthyridin-2-yl)pentanamido)propanoic acid]
< 250 nM	COc1ccc(S(=O)(=O)N2CC(C(=O)N[C@@H](CNC(=O)CCCCc3ccc4c(n3)NCCC4)C(=O)O)C2)cc1OC [Example 32, (S)-2-(1-(3,4-Dimethoxybenzenesulfonyl)azetidine-3-carboxamido)-3-(5-(5,6,7,8-tetrahydro-1,8-naphthyridin-2-yl)pentanamido)propanoic acid]
< 250 nM	O=C(CCCCc1ccc2c(n1)NCCC2)NC[C@H](NC(=O)C1CN(S(=O)(=O)c2cccc(C3=CCOCC3)c2)C1)C(=O)O [Example 33]
< 250 nM	O=C(CCCCc1ccc2c(n1)NCCC2)NC[C@H](NC(=O)C1CN(S(=O)(=O)c2cccc(N3CCNCC3)c2)C1)C(=O)O [Example 34, (S)-2-(1-(3-(Piperazin-1-yl)benzenesulfonyl)azetidine-3-carboxamido)-3-(5-(5,6,7,8-tetrahydro-1,8-naphthyridin-2-yl)pentanamido)propanoic acid]
< 250 nM	CN(C)CCOc1cccc(S(=O)(=O)N2CC(C(=O)N[C@@H](CNC(=O)CCCCc3ccc4c(n3)NCCC4)C(=O)O)C2)c1 [Example 35]
< 250 nM	Cc1cccc(S(=O)(=O)N2CC(C(=O)N[C@@H](CC(=O)NCCCCc3ccc4c(n3)NCCC4)C(=O)O)C2)c1 [Example 36, N4-(4-(5,6,7,8-Tetrahydro-1,8-naphthyridin-2-yl)butyl)-N2-(1-(3-methylbenzenesulfonyl)azetidine-3-carbonyl)-L-asparagine]
< 250 nM	Cc1cccc(S(=O)(=O)N2CC(C(=O)N[C@@H](CCN(C)CCCCc3ccc4c(n3)NCCC4)C(=O)O)C2)c1 [Example 37, (S)-4-(Methyl(4-(5,6,7,8-tetrahydro-1,8-naphthyridin-2-yl)butyl)amino)-2-(1-(3-methylbenzenesulfonyl)azetidine-3-carboxamido)butanoic acid]
< 250 nM	CN(CCCCc1ccc2c(n1)NCCC2)CC[C@H](NC(=O)C1CN(S(=O)(=O)c2ccccc2)C1)C(=O)O [Example 38, (S)-4-(Methyl(4-(5,6,7,8-tetrahydro-1,8-naphthyridin-2-yl)butyl)amino)-2-(1-(phenylsulfonyl)azetidine-3-carboxamido)butanoic acid]
< 250 nM	CN(CCCCc1ccc2c(n1)NCCC2)CC[C@H](NC(=O)C1CN(S(=O)(=O)c2cccc(Cl)c2)C1)C(=O)O [Example 39, (S)-2-(1-((3-chlorophenyl)sulfonyl)azetidine-3-carboxamido)-4-(methyl(4-(5,6,7,8-tetrahydro-1,8-naphthyridin-2-yl)butyl)amino)butanoic acid]
